Test results: article PMC12615753, “Glutathione as a taste modulator: molecular mechanisms of interaction with umami and sweet taste receptors” (Food Chemistry: Molecular Sciences, 2025)

Key:
[1] = biological target: T1, hTAS1R1/hTAS1R3(r1–575) (Homo sapiens, UniProt Q7RTX1); assay: Calcium assay, chimeric TAS1R3 co-expressed with hTAS1R1; assay type: cell-based, rat; settings: data not shown
T1 construct: UniProtKB number Q7RTX1–1); expressed in transfected cells; host or cells: HEK293T/17 (inferred from the general method)
T1 sequence (Q7RTX1 21-841): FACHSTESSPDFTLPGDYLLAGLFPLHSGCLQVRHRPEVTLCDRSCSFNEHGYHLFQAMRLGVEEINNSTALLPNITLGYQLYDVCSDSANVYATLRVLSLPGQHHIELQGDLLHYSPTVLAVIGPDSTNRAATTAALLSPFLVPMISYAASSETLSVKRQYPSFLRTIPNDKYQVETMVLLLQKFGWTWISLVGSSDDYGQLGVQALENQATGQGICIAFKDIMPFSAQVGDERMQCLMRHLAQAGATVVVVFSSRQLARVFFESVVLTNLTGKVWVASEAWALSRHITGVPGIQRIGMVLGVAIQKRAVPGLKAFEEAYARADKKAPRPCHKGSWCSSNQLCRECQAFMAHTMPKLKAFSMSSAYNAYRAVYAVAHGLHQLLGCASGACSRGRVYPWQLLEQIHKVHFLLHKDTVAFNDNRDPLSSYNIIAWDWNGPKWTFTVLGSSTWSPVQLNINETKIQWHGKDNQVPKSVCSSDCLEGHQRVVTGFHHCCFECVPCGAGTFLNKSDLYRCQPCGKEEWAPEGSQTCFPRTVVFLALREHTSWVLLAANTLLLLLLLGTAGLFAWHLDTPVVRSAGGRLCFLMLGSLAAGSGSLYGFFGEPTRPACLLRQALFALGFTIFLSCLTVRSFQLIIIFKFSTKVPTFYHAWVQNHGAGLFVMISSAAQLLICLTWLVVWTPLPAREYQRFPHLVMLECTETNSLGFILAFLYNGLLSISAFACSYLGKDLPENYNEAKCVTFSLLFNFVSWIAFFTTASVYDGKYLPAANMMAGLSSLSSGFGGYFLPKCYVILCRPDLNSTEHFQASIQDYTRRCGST
From the text: (§1) Chimeric Gα proteins, such as Gα16Gust44, Gα16Gi3 or Gα15i2, are widely used in the functional expression of TAS1R receptors ([Backes et al., 2015]; [Suess et al., 2015]; [Toda et al., 2021], [Toda et al., 2013], [Toda et al., 2018]; [Zhang et al., 2008]). Chimeric Gα15i2 (([Toda et al., 2013]), Supplementary data) was generated by replacing the last five residues of the C-terminal tail of rat Gα15i2 (EINLL) (UniProt number G3V6N8; https://www.uniprot.org/uniprot/) with the counterpart sequence from human GNAI2 (DCGLF) (UniProt number P04899-1) and cloning into the pcDNA3.1/Hygro vector (Invitrogen, Thermo Fisher Scientific, Illkirch, France) between the HindIII and NotI restriction sites, resulting in the plasmid pcDNA3.1-Gα15i2. Chimeric Gα16Gust44 construct have already been reported ([Raliou et al., 2011]). Briefly, Gα16Gust44 was generated by replacing the C-terminal of Gα16 with the C-terminal 44 residues of gustducin. As previously described, hTAS1R1 was amplified from human fungiform papillae cDNA and cloned and inserted into pcDNA3 (Invitrogen), generating pcDNA3-TAS1R1-WT (wild-type) ([Raliou et al., 2011]). […]

[2] = biological target: T2, hTAS1R1/hTAS1R3(r570–858) (Homo sapiens, UniProt Q7RTX1); assay: as above; assay type: cell-based, rat; settings: data not shown
T2 construct: UniProtKB number Q7RTX1–1); expressed in transfected cells; host or cells: HEK293T/17 (inferred from the general method)
T2 sequence (Q7RTX1 21-841): as above
From the text: as §1

[3] = biological target: T3, hTAS1R1 Q278K/rTAS1R3 (Homo sapiens, UniProt Q7RTX1, Q278K); assay: Calcium assay, hTAS1R1 mutant co-expressed with rTAS1R3; assay type: cell-based, rat
T3 construct: UniProtKB number Q7RTX1–1); expressed in transfected cells; host or cells: HEK293T/17 (ATCC CRL-11268)
T3 sequence (Q7RTX1 21-841 Q278K): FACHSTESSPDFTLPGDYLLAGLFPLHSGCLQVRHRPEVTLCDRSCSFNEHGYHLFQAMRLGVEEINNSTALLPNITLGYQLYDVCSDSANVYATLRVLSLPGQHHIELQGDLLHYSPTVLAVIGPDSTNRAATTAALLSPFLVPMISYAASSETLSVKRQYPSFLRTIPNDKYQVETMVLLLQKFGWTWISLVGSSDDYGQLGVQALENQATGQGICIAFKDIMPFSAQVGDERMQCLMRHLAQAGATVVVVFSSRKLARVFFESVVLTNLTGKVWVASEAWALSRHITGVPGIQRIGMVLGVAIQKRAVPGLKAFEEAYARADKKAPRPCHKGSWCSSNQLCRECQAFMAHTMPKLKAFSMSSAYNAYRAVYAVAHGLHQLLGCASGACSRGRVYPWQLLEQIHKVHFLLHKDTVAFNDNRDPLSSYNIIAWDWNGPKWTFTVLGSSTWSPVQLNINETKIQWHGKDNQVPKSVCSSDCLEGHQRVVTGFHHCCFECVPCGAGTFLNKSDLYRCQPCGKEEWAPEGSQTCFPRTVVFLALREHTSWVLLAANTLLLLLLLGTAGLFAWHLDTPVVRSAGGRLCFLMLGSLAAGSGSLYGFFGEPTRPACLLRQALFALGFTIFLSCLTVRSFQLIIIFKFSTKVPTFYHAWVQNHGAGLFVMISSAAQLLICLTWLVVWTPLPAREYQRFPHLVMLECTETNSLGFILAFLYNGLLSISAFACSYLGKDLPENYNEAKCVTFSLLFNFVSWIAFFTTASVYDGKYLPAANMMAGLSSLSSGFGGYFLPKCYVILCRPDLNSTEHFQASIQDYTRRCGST
T3 sequence (Q923K1 21-858 partner): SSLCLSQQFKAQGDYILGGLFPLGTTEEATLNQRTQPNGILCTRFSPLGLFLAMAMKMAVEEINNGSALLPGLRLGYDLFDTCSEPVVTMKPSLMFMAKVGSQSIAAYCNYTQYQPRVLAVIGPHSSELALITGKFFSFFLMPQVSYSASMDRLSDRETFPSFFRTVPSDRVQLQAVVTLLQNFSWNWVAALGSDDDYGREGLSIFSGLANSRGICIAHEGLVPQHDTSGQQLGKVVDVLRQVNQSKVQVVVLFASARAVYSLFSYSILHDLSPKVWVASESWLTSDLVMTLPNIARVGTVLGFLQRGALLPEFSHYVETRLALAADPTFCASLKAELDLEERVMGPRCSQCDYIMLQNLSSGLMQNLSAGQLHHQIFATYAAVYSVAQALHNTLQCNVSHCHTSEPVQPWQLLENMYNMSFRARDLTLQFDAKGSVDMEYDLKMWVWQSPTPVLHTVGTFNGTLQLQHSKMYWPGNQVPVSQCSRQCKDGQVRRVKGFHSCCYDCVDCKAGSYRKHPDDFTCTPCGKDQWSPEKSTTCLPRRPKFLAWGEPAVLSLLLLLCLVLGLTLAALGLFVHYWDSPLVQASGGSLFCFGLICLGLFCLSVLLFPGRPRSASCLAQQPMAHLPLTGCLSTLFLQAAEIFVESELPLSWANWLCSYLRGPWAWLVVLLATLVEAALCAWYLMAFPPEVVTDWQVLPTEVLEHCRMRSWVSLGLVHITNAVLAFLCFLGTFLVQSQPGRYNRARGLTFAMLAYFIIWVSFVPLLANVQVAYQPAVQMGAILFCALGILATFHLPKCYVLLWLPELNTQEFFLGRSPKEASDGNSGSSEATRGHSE

[4] = system: TAS1R1/TAS1R3; settings: ref Broadhead et al., 2011; Servant & Frerot, 2022; cited from earlier work

Row | Structure (SMILES) | response of the receptor [1] | response of the receptor [2] | EC50 [3] | effect of the added compound (1 mM) on the response to L-Glu ([3]; Q278K) | response to the agonist alone, vs WT ([3]; Q278K) | Max ∆F/F0 ([3]; Q278K, GSH) | R1 = mutant EC50/WT EC50 ([3]; Q278K, GSH) | EC50 [4]
1 | N[C@@H](CCC(=O)O)C(=O)O [L-Glu, L-glutamic acid, reference compound] | did not respond | did not respond | – | – | – | – | – | –
2 | N[C@@H](CCC(=O)N[C@@H](CS)C(=O)NCC(=O)O)C(=O)O [GSH, γ-L-glutamyl-L-cysteinyl-glycine] | – | – | 5.66 ± 0.31 mM | synergy was observed | significantly increased the initial amplitude | 1.10 ± 0.02 | 2.2 | 11.3 mM
